From patent US20140045809A1, “CORROLES FOR NEUROPROTECTION AND NEURORESCUE” (priority 2008, published 2014)
pIC50: −log10 of the molar value. Entries after “also recorded” stand apart in the source; their conditions may differ.

Legend:
[1] = target: transferrin (Homo sapiens, UniProt P02787); assay: Binding of corrole complexes to transferrin; conditions: preliminary experiments
Description: Issues regarding biodistribution, transport mechanisms, accumulation in specific organs, and the eventual elimination of administered compounds are among the prime concerns when it comes to real life utilization of potential drugs. This can be addressed by several and quite different means, including in vitro, in vivo and ex-vivo examinations. One way to predict distribution is via examination of the binding of the corroles to circulating proteins that might act as transporters, similar to experiment performed previously by the inventors with metal complexes of corrole 1C (Scheme 1), which spontaneously form tightly bound non-covalent bioconjugates with HDL (Haber et al., 2007), albumin (Mahammed et al., 2004), and transferrin (Haber and Gross. 2007) (listed in increasing order of affinity), as well as with semi-synthetic proteins (Agadjanian et al., 2006). […] A more direct approach relies on the strong fluorescence of corroles that are not chelated by transition metals (no metal such as in corroles 1C and 2C, or using corrole Ga/Al complexes such as 1C-Ga). This feature is used for testing cell entry via confocal microscopy (Agadjanian et al., 2006), without the need of attaching a fluorescent tag. Furthermore, it may even be used for whole animal imaging purposes, as shown in Example 4 hereinabove. […]

[2] = test system: SH-SY5Y cells; assay type: cell-based; conditions: up to 50 μM; data not shown
[3] = SOD activity (catalytic decomposition of superoxide anion radical), cytochrome C assay; assay type: biochemical
Protocol: SOD activity (enzyme-like catalytic decomposition of superoxide anion radical) of the corroles 1C-Fe, 6C-Fe, 1C-Mn, 1C-Cu, 2C-Mn and 3C-Mn was examined via the cytochrome C assay. The catalytic rate constants for decomposition of peroxynitrite (PN) by the newly prepared iron corrole 6C-Fe and manganese corrole 3C-Mn were determined via stopped-flow kinetics as previously described for corroles 1C-Fe, 1C-Mn, and 2C-Mn (Mahammed and Gross, 2006; Gershman et al., 2007). These tests are performed in order to estimate how electronic and structural variables affect reactivity, which is a crucial factor for design of new complexes.

[4] = test system: RIN-m cells; assay: Protection of RIN-m cells against SIN-1 toxicity (MTT); assay type: cell-based, rat; conditions: 24 h; for protective effect against SIN-1 induced toxicity (MTT), comparative: 0.1-20 μM, 30 min before SIN-1 (800 μM)
Protocol: (§1) INS-1E cells or RIN-m cells were cultured in RPMI with low serum content (2% FCS), placed in microtiter plates (96 wells) at a density of 2.5×10^4 cells/well and allowed to attach for 24 h before treatment. Corroles 1C-Fe and 5C-Fe (10 μM) were added 30 min prior to insult with the nitric oxide donor SIN-1 (500 or 600 μM) for a subsequent 24 h period. Cell viability was evaluated by a colorimetric assay for mitochondrial function using 3-(4,5-dimethylthiazol-2-yl)-2,5-diphenyltetrazolium bromide (MTT test), and expressed as percentage of untreated control. Values higher than 100% reflect increased mitochondrial activity induced by the drug. The results represent the mean±SEM of three independent experiments performed under the same conditions.
Insulin-secreting RIN-m cells were incubated in RPMI with low serum content (2% FCS) and placed in microtiter plates (96 wells) at a density of 2.5×10^4 cells/well and allowed to attach for 24 h before treatment. Cells were treated with corroles 1C-Fe, 1C-Mn or 2C-Mn or porphyrins 1P-Fe or 2P-Mn, in various concentrations (0.1-20 μM), for 30 min prior to insult with SIN-1 (800 μM) for a subsequent 24 h period. Cell viability was evaluated by MTT test and expressed as percentage of untreated control.

[5] = Peroxynitrite decomposition rates by manganese corroles (Example 2); assay type: biochemical; conditions: 385 μM peroxynitrite, pH 7.4, 25° C., absorbance at 302 nm; Table 2
Protocol: The investigations were performed by examining the decay of 385 μM peroxynitrite at pH 7.4 and 25° C. in the presence and absence of various amounts of Mn corrole catalysts 2C-Mn, 2C′-Mn, 2C″-Mn, 3C-Mn and 4C-Mn. The differences between 2C-Mn, 2C′-Mn, and 2C″-Mn is in the identity of the 10-aryl group, which is C6F5, para-anisyl, and phenyl, respectively. The results (one example using 4C-Mn is shown in FIG. 1) were obtained by monitoring changes in absorbance at 302 nm, the λmax of peroxynitrite. The catalytic performances of five of the above compounds were tested; and the thus elucidated kcat values are presented in Table 2. Importantly, in sharp contrast with the corroles, none of the structurally similar manganese (III) porphyrin complexes affected the decomposition of peroxynitrite by any extent (not shown).

[6] = test system: INS-1E cells; assay: Protection of INS-1E beta cells against H2O2 toxicity; assay type: cell-based, rat; conditions: 20 and 50 μM, 30 min before increasing H2O2 concentrations, 24 h
Protocol: Two insulin-secreting beta cell lines, rat insulinoma (INS-1E) and RIN-m cells, were used to examine the protective effect of corrole 1C-Fe. The cells were cultured at 37° C., in a humid 5% CO2, 95% air environment in regular RPMI-1640 medium (Invitrogen) supplemented with 5% fetal calf serum (FCS).
After 2 days of culture, INS-1E cells (5×10^4 cells/well in 96-well plates) were treated with corrole 1C-Fe (20 and 50 μM) added 30 minutes prior to treatment with increasing concentrations of H2O2 and then further incubated for 24 h.

[7] = test system: INS-1E cells; assay: Protection of INS-1E cells against SIN-1 toxicity (MTT); assay type: cell-based, rat; conditions: 10 μM, 30 min before SIN-1 (500 or 600 μM), 24 h
Protocol: as §1

[8] = test system: clonal beta cell lines; assay: Toxicity of corrole alone (without H2O2) on clonal beta cell lines; assay type: cell-based; conditions: without H2O2, concentrations up to 50 μM

transferrin, sequence (P02787 20-698, species assumed): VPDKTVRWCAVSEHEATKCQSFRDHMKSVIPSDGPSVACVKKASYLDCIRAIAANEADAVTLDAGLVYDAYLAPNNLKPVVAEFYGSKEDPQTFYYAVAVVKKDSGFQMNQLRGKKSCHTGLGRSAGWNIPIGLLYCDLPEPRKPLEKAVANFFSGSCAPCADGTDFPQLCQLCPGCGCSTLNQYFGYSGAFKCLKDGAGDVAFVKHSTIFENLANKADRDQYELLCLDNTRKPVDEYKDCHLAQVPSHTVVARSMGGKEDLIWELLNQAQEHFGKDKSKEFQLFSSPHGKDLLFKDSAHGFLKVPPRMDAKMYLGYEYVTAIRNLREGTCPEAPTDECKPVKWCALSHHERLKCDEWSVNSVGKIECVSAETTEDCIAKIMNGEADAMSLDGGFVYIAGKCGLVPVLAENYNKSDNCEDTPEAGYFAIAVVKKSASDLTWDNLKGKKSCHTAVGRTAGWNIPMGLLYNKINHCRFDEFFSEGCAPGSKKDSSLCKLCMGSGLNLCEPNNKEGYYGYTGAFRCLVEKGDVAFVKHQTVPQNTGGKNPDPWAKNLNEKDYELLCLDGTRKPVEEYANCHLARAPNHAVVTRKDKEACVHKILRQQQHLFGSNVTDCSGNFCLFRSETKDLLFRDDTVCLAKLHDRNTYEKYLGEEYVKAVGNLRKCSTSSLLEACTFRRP

SMILES | binding to transferrin [1] | preventing H2O2-mediated cytotoxicity [2] | pIC50 [3] | protective effect against SIN-1 induced toxicity (MTT), comparative [4] | kcat, peroxynitrite decomposition rate [5] [M⁻¹ s⁻¹] | protective effect against H2O2 toxicity [6] | protective effect against SIN-1 induced toxicity (MTT) [7] | protective effect against SIN-1 induced toxicity (MTT) ([4]; 10 μM, 30 min before SIN-1 (500 or 600 μM)) | toxicity when given alone [8]
C[n+]1ccc(C2=C3C=CC4=[N+]3[Mn-]35[n]6c2ccc6-c2ccc([n]23)C(c2cc[n+](C)cc2)=c2ccc([n]25)=C4c2c(F)c(F)c(F)c(F)c2F)cc1.[I-].[I-] (centres unmarked) [2C-Mn, 5,15-bis(4-N-methyl-pyridilium)-10-pentafluorophenyl-corrolato manganese(III) diiodide salt] | still do so for transferrin | not effective | 5.82 | successful; also recorded: unequivocally in favor of the former; also recorded: improved protective effect | 150000 | – | – | – | –
O=S(=O)(O)c1cc2[n]3c1C(c1c(F)c(F)c(F)c(F)c1F)=C1C=CC4=[N+]1[Fe-]31[n]3c(cc(S(=O)(=O)O)c3-2)C(c2c(F)c(F)c(F)c(F)c2F)=c2ccc([n]21)=C4c1c(F)c(F)c(F)c(F)c1F (centres unmarked) [1C-Fe, 2,17-bis(sulfonato)-5,10,15-tris(pentafluorophenyl)-corrolato iron(III)] | – | – | 5.79 | successful; also recorded: exhibits a greater protective effect | – | significant protective effect | marked protective effect | marked protective effect | shows no toxicity
